Measured values from ChEMBL document CHEMBL5696442, “Discovery of type II inhibitors of TGFβ-activated kinase 1 (TAK1) and mitogen-activated protein kinase kinase kinase kinase 2 (MAP4K2)” (J Med Chem, 2015).
Activity calls are given as the source filed them. The rule behind the calls is not given here.

Assays:
[1] = molecular target: T1, Mitogen-activated protein kinase 12 (Homo sapiens) (UniProt P53778); assay: Inhibition of p38gamma (unknown origin) at 10 uM by Ambit Kinomescan binding assay relative to control; values are per cent of control
T1 sequence (whole entry): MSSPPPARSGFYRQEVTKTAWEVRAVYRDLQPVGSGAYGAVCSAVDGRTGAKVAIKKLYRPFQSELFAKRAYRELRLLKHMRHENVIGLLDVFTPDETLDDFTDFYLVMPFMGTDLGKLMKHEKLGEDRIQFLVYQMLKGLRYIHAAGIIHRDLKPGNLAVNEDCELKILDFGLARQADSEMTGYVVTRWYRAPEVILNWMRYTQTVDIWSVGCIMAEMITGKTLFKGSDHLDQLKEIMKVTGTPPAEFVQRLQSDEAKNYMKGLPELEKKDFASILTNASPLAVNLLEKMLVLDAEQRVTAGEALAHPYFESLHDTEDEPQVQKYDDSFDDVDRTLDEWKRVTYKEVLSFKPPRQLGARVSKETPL

[2] = Inhibition of MAP3K2/3 K2 labeling site in human Huh-7 cells at 1 uM by KiNativ Profiling analysis relative to control; conditions: condition cancer
[3] = molecular target: Bone morphogenetic protein receptor type-1A (Homo sapiens) (UniProt P36894); assay: Inhibition of BMPR1A (unknown origin) at 10 uM by Ambit Kinomescan binding assay
[4] = molecular target: Activin receptor type-2A (Homo sapiens) (UniProt P27037); assay: Inhibition of ACVR2A (unknown origin) at 1 uM by Ambit Kinomescan binding assay relative to control
[5] = molecular target: T2, Serine/threonine-protein kinase 3 (Homo sapiens) (UniProt Q13188); assay: Inhibition of MST2 (unknown origin) at 1 uM by Ambit Kinomescan binding assay relative to control
T2 sequence (whole entry): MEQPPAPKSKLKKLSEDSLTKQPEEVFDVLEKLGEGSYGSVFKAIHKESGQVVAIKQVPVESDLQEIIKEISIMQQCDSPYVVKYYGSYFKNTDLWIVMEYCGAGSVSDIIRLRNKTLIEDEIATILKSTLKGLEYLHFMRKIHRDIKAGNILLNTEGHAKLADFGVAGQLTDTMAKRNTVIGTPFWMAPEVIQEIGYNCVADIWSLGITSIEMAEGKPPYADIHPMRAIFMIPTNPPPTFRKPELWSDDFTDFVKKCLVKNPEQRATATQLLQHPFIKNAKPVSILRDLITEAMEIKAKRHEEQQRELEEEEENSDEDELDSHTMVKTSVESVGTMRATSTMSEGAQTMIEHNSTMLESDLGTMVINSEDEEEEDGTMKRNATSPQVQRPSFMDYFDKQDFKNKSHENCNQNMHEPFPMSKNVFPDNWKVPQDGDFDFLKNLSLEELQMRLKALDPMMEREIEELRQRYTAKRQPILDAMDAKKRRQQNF

[6] = molecular target: T3, Receptor-interacting serine/threonine-protein kinase 4 (Homo sapiens) (UniProt P57078); assay: Inhibition of ANKRD3 Lys1 labeling site in human A-375 cells at 0.5 uM by KiNativ Profiling analysis relative to control; format: cell-based
T3 sequence (whole entry): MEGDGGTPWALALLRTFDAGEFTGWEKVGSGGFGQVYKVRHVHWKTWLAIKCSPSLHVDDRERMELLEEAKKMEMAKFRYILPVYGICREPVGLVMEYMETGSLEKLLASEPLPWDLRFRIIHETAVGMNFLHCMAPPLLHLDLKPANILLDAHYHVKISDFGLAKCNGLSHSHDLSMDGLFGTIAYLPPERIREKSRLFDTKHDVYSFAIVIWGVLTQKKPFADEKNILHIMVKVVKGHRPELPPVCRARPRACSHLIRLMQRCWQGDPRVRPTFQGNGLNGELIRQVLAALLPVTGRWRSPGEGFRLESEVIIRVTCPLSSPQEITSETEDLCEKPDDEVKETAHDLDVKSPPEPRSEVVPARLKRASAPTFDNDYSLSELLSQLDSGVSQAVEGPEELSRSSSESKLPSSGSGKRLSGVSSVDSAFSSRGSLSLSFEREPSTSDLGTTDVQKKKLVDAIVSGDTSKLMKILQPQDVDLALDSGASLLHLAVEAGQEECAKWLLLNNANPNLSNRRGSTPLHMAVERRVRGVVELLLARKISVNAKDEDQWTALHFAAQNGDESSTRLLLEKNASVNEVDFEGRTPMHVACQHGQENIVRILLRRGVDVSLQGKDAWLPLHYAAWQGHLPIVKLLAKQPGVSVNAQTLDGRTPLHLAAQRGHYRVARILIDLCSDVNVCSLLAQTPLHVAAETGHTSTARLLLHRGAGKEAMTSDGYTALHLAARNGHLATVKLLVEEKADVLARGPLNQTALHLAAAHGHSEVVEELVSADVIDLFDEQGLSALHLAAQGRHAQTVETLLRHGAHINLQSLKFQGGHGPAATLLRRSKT

[7] = molecular target: Mitogen-activated protein kinase 3 (Homo sapiens) (UniProt P27361); assay: Inhibition of Erk1 Lys2 labeling site harbouring YIHSANVLHRDLKPSNLLINTTCDLK in human A-375 cells at 0.05 uM by KiNativ Profiling analysis relative to control; format: cell-based
[8] = molecular target: Receptor-interacting serine/threonine-protein kinase 2 (Homo sapiens) (UniProt O43353); assay: Inhibition of RIPK2 (unknown origin) at 1 uM by Ambit Kinomescan binding assay relative to control
[9] = molecular target: Serine/threonine-protein kinase 4 (Homo sapiens) (UniProt Q13043); assay: Inhibition of MST1 Lys1 labeling site harbouring ETGQIVAIKQVPVESDLQEIIK in human Huh-7 cells at 1 uM by KiNativ Profiling analysis relative to control
[10] = molecular target: Cyclin-dependent kinase 17 (Homo sapiens) (UniProt Q00537); assay: Inhibition of PCTAIRE2 Lys2 labeling site harbouring DLKPQNLLINEKGELKLADFGLAR in human Huh-7 cells at 1 uM by KiNativ Profiling analysis relative to control; format: cell-based
[11] = molecular target: T1, Mitogen-activated protein kinase 12 (Homo sapiens); assay: Inhibition of p38gamma Lys2 labeling site in human Huh-7 cells at 1 uM by KiNativ Profiling analysis relative to control; format: cell-based

Chain of Activin receptor type-2A (Homo sapiens) (P27037 whole entry): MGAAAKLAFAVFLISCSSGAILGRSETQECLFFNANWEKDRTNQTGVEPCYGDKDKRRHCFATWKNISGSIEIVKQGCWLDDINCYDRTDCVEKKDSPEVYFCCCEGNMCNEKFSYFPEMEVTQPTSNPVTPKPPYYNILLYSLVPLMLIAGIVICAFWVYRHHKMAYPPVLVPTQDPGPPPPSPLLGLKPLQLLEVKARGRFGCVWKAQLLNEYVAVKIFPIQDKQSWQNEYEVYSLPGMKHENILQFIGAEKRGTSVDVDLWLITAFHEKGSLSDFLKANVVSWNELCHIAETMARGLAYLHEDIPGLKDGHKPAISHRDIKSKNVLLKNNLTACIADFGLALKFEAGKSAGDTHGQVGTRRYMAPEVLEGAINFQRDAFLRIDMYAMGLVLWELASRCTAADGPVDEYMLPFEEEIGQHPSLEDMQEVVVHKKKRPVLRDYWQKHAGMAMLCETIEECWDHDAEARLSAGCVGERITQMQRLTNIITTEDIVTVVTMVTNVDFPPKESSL
Chain of Serine/threonine-protein kinase 4 (Homo sapiens) (Q13043 whole entry, looked up): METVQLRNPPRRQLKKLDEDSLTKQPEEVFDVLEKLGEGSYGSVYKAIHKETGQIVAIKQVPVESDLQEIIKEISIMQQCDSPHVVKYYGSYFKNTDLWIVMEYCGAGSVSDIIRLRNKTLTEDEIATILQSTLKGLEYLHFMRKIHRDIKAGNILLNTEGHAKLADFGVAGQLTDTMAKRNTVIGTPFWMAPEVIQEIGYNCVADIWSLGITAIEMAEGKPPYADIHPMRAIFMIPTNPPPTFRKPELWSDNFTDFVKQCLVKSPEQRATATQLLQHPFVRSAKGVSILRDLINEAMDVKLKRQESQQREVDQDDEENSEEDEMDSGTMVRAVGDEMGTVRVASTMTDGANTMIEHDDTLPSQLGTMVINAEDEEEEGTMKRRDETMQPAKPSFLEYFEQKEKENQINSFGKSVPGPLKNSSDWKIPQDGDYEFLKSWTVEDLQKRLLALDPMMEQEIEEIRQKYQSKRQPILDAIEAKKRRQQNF
Chain of Mitogen-activated protein kinase 3 (Homo sapiens) (P27361 whole entry): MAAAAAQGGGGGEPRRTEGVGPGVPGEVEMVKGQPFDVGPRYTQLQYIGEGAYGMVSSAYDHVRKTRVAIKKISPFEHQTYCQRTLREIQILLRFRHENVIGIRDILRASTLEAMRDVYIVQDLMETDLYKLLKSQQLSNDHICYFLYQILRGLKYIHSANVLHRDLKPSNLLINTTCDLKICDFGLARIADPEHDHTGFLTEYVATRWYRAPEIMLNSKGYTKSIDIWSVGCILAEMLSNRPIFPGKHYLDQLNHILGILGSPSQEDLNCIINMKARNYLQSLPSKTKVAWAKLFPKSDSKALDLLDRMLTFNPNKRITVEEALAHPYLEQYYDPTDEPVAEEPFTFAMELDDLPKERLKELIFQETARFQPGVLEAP
Chain of Cyclin-dependent kinase 17 (Homo sapiens) (Q00537 whole entry, looked up): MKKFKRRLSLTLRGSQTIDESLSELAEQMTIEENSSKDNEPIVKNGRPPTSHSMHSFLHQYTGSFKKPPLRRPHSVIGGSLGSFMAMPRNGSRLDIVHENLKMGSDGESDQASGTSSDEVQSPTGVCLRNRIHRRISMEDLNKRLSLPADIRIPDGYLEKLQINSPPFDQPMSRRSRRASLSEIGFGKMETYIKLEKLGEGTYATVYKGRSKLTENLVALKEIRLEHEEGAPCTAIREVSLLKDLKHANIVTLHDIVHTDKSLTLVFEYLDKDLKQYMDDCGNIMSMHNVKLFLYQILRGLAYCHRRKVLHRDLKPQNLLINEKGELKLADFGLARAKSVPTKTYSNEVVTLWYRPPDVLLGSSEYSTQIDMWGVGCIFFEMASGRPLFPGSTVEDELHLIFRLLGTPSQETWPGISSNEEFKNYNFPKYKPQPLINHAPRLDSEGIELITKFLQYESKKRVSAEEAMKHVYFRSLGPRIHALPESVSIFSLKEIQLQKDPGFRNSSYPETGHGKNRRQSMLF
Chain of Receptor-interacting serine/threonine-protein kinase 2 (Homo sapiens) (O43353 whole entry): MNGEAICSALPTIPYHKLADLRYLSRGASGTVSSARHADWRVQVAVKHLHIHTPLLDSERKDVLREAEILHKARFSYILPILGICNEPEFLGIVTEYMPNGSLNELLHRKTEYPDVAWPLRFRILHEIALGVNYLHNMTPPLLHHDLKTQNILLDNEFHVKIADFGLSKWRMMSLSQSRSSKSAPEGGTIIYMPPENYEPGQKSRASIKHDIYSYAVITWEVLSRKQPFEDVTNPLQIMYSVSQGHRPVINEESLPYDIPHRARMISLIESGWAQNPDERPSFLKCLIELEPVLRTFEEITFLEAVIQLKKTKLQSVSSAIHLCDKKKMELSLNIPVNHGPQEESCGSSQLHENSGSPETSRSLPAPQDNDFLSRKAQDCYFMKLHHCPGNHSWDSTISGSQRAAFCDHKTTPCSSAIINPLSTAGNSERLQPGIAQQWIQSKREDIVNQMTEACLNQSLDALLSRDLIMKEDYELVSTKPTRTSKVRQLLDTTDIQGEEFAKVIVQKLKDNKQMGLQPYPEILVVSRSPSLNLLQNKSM
Chain of Bone morphogenetic protein receptor type-1A (Homo sapiens) (P36894 whole entry): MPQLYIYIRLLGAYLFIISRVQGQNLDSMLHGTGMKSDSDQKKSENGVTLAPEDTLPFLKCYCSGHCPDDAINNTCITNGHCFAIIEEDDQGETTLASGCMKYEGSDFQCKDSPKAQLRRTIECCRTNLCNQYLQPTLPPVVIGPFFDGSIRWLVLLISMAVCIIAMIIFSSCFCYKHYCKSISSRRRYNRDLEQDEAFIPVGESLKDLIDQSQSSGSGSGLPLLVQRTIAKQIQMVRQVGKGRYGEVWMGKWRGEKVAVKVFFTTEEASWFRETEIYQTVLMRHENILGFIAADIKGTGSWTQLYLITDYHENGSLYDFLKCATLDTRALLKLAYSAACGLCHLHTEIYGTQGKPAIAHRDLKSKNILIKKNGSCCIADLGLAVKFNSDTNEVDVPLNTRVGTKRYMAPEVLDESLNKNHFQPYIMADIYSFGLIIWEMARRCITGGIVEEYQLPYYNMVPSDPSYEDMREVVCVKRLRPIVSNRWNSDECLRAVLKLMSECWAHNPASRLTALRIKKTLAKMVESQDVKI

CCN1CCN(Cc2ccc(NC(=O)c3ccc(C)c(Oc4ccnc5[nH]ccc45)c3)cc2C(F)(F)F)CC1
percent of control [1]: 0%
inhibition at 1 µM [2]: 7.4%
inhibition [3]: inactive

CCN1CCN(Cc2ccc(NC(=O)c3ccc(C)c(/C=C/c4cnc5[nH]ccc5c4OC)c3)cc2C(F)(F)F)CC1
inhibition [4]: 100%
inhibition [5]: 100%
inhibition [6]: 23.7%
inhibition [7]: -5.4%
inhibition [8]: 4.5%

CNc1cc(Oc2cc(C(=O)Nc3cc(N4CCN(C)CC4)cc(C(F)(F)F)c3)ccc2C)ncn1
inhibition [9]: 8.9%
inhibition [10]: -9.1%
inhibition [11]: 13%
